Assay results as given in patent US6362369B1, “Phthalic acid diamide derivatives fluorine-containing aniline compounds as starting material, agricultural and horticultural insecticides, and a method for application of the insecticides” (Nihon Nohyaku Co., Ltd., priority 1997, dated 2002).

What follows are molecules tested on diamondback moth (Plutella xylostella) (assay: Insecticidal effect on diamondback moth (Test Example 1)). Details: mortality judged according to the criterion shown in Test Example 1.
Type: in vivo
Experimental: Insecticidal effect on diamondback moth (Plutella xylostella) Adult diamondback moths were released and allowed to oviposit on a Chinese cabbage seedling. […] After air-drying, it was allowed to stand in a room thermostated at 25° C. Six days after the immersion, the hatched insects were counted. The mortality was calculated according to the following equation and the insecticidal effect was judged according to the criterion shown below. The test was carried out with triplicate groups of 10 insects. [table]
In the case of `CC(C)NC(=O)c1c(C(=O)Nc2ccccc2F)cccc1[N+](=O)[O-]` [compound 592], the “Insecticidal effect on diamondback moth (Test Example 1), judged grade” value (from here on “Insecticidal effect on diamondback moth”) is reported as “A (100)”. With `CC(C)NC(=O)c1c(C(=O)Nc2cccc(F)c2)cccc1[N+](=O)[O-]` [compound 593] the “Insecticidal effect on diamondback moth” value was “A (100)”. With `CC(C)NC(=O)c1c(C(=O)Nc2ccc(F)cc2)cccc1[N+](=O)[O-]` [compound 594] the “Insecticidal effect on diamondback moth” value was “A (100)”. `CC(C)NC(=O)c1c(C(=O)Nc2cccc(C#N)c2)cccc1[N+](=O)[O-]` [compound 597] was tested, and the “Insecticidal effect on diamondback moth” value was “B (99-90)”. With `CC(C)NC(=O)c1c(C(=O)Nc2ccc(C#N)cc2)cccc1[N+](=O)[O-]` [compound 598] the “Insecticidal effect on diamondback moth” value was “A (100)”. With `Cc1cccc(NC(=O)c2cccc([N+](=O)[O-])c2C(=O)NC(C)C)c1` [compound 600] the “Insecticidal effect on diamondback moth” value was “A (100)”. In the case of `Cc1ccc(NC(=O)c2cccc([N+](=O)[O-])c2C(=O)NC(C)C)cc1` [compound 601], the “Insecticidal effect on diamondback moth” value is reported as “A (100)”. In the case of `CC(C)NC(=O)c1c(C(=O)Nc2ccccc2C(F)(F)F)cccc1[N+](=O)[O-]` [compound 608], the “Insecticidal effect on diamondback moth” value is reported as “A (100)”. With `COc1cccc(NC(=O)c2cccc([N+](=O)[O-])c2C(=O)NC(C)C)c1` [compound 613] the “Insecticidal effect on diamondback moth” value was “A (100)”. `COc1ccc(NC(=O)c2cccc([N+](=O)[O-])c2C(=O)NC(C)C)cc1` [compound 614] was tested, and the “Insecticidal effect on diamondback moth” value was “A (100)”. With `CC(C)NC(=O)c1c(C(=O)Nc2cccc(OC(C)C)c2)cccc1[N+](=O)[O-]` [compound 615] the “Insecticidal effect on diamondback moth” value was “A (100)”. With `CSc1cccc(NC(=O)c2cccc([N+](=O)[O-])c2C(=O)NC(C)C)c1` [compound 621] the “Insecticidal effect on diamondback moth” value was “A (100)”. For `CSc1ccccc1NC(=O)c1cccc([N+](=O)[O-])c1C(=O)NC(C)C` [compound 622], the “Insecticidal effect on diamondback moth” value was “A (100)”. `CC(C)NC(=O)c1c(C(=O)Nc2ccc(SCC(F)(F)F)cc2)cccc1[N+](=O)[O-]` [compound 624] was tested, and the “Insecticidal effect on diamondback moth” value was “A (100)”. With `CC(C)NC(=O)c1c(C(=O)Nc2ccc(SC(F)(F)C(F)F)cc2)cccc1[N+](=O)[O-]` [compound 626] the “Insecticidal effect on diamondback moth” value was “A (100)”. `CC(C)NC(=O)c1c(C(=O)Nc2cc(Cl)cc(Cl)c2)cccc1[N+](=O)[O-]` [compound 637] was tested, and the “Insecticidal effect on diamondback moth” value was “A (100)”. `CC(C)NC(=O)c1c(C(=O)Nc2cccc(F)c2F)cccc1[N+](=O)[O-]` [compound 638] was tested, and the “Insecticidal effect on diamondback moth” value was “B (99-90)”. In the case of `CC(C)NC(=O)c1c(C(=O)Nc2ccc(F)cc2F)cccc1[N+](=O)[O-]` [compound 639], the “Insecticidal effect on diamondback moth” value is reported as “A (100)”. For `CC(C)NC(=O)c1c(C(=O)Nc2cc(F)ccc2F)cccc1[N+](=O)[O-]` [compound 640], the “Insecticidal effect on diamondback moth” value was “A (100)”. In the case of `CC(C)NC(=O)c1c(C(=O)Nc2ccc(F)c(F)c2)cccc1[N+](=O)[O-]` [compound 642], the “Insecticidal effect on diamondback moth” value is reported as “A (100)”. `CC(C)NC(=O)c1c(C(=O)Nc2ccc(F)c(F)c2F)cccc1[N+](=O)[O-]` [compound 645] was tested, and the “Insecticidal effect on diamondback moth” value was “A (100)”. With `Cc1cccc(C)c1NC(=O)c1cccc([N+](=O)[O-])c1C(=O)NC(C)C` [compound 650] the “Insecticidal effect on diamondback moth” value was “A (100)”. For `Cc1cc(C)c(NC(=O)c2cccc([N+](=O)[O-])c2C(=O)NC(C)C)c(C)c1` [compound 652], the “Insecticidal effect on diamondback moth” value was “A (100)”. In the case of `CCc1cccc(CC)c1NC(=O)c1cccc([N+](=O)[O-])c1C(=O)NC(C)C` [compound 653], the “Insecticidal effect on diamondback moth” value is reported as “A (100)”. `Cc1cc(NC(=O)c2cccc([N+](=O)[O-])c2C(=O)NC(C)C)c(F)cc1Cl` [compound 657] was tested, and the “Insecticidal effect on diamondback moth” value was “D (79-50)”. In the case of `CC(C)NC(=O)c1c(C(=O)Nc2ccc(OC(F)F)c(Cl)c2)cccc1[N+](=O)[O-]` [compound 658], the “Insecticidal effect on diamondback moth” value is reported as “A (100)”. With `CC(C)NC(=O)c1c(C(=O)Nc2cc(Cl)c(OC(F)F)c(Cl)c2)cccc1[N+](=O)[O-]` [compound 659] the “Insecticidal effect on diamondback moth” value was “A (100)”. For `CC(C)NC(=O)c1c(C(=O)Nc2c(Cl)cc(C(F)(F)F)cc2Cl)cccc1[N+](=O)[O-]` [compound 662], the “Insecticidal effect on diamondback moth” value was “A (100)”. In the case of `Cc1cc(Cl)c(Cl)cc1NC(=O)c1cccc([N+](=O)[O-])c1C(=O)NC(C)C` [compound 668], the “Insecticidal effect on diamondback moth” value is reported as “A (100)”. With `Cc1ccc(Br)cc1NC(=O)c1cccc([N+](=O)[O-])c1C(=O)NC(C)C` [compound 672] the “Insecticidal effect on diamondback moth” value was “A (100)”. In the case of `CCc1ccc(F)cc1NC(=O)c1cccc([N+](=O)[O-])c1C(=O)NC(C)C` [compound 677], the “Insecticidal effect on diamondback moth” value is reported as “A (100)”. For `CC(C)NC(=O)c1c(C(=O)Nc2ccc(Cl)c(C(F)(F)F)c2)cccc1[N+](=O)[O-]` [compound 678], the “Insecticidal effect on diamondback moth” value was “A (100)”. `Cc1ccc([N+](=O)[O-])cc1NC(=O)c1cccc([N+](=O)[O-])c1C(=O)NC(C)C` [compound 708] was tested, and the “Insecticidal effect on diamondback moth” value was “D (79-50)”. `CSc1ccc(NC(=O)c2cccc([N+](=O)[O-])c2C(=O)NC(C)C)c(C)c1C` [compound 720] was tested, and the “Insecticidal effect on diamondback moth” value was “A (100)”. `Cc1cc(SC(C)C)ccc1NC(=O)c1cccc([N+](=O)[O-])c1C(=O)NC(C)C` [compound 721] was tested, and the “Insecticidal effect on diamondback moth” value was “A (100)”. `CC(C)NC(=O)c1c(C(=O)Nc2ccc3c(c2)OCO3)cccc1[N+](=O)[O-]` [compound 733] was tested, and the “Insecticidal effect on diamondback moth” value was “A (100)”. With `CC(C)NC(=O)c1c(C(=O)Nc2ccc3c(c2)nc(C(F)(F)F)n3C)cccc1[N+](=O)[O-]` [compound 737] the “Insecticidal effect on diamondback moth” value was “A (100)”. With `Cc1ccc(Cl)cc1NC(=O)c1cc([N+](=O)[O-])ccc1C(=O)NC(C)C` [compound 738] the “Insecticidal effect on diamondback moth” value was “D (79-50)”. With `Cc1cc(C(F)(F)F)ccc1NC(=O)c1c(C(=O)NC(C)C)cccc1[N+](=O)[O-]` [compound 742] the “Insecticidal effect on diamondback moth” value was “A (100)”. In the case of `Cc1cc(OC(F)(F)C(F)C(F)(F)F)ccc1NC(=O)c1c(C(=O)NC(C)C)cccc1[N+](=O)[O-]` (stereo not drawn) [compound 743], the “Insecticidal effect on diamondback moth” value is reported as “D (79-50)”. With `Cc1cc(Cl)ccc1NC(=O)c1cccc(C#N)c1C(=O)NC(C)C` [compound 744] the “Insecticidal effect on diamondback moth” value was “C (89-80)”. With `Cc1cc(Cl)ccc1NC(=O)c1c(C#N)cccc1C(=O)NC(C)C` [compound 745] the “Insecticidal effect on diamondback moth” value was “D (79-50)”. With `Cc1cccc(C(=O)Nc2ccc(OC(F)(F)F)cc2)c1C(=O)NC(C)C` [compound 749] the “Insecticidal effect on diamondback moth” value was “A (100)”. With `Cc1ccc(Cl)cc1NC(=O)c1c(C(=O)NC(C)C)cccc1C(F)(F)F` [compound 766] the “Insecticidal effect on diamondback moth” value was “A (100)”. With `Cc1cc(Cl)ccc1NC(=O)c1cccc([S+]([O-])C(C)C)c1C(=O)NC(C)C` (stereo not drawn) [compound 793] the “Insecticidal effect on diamondback moth” value was “A (100)”.
